For orientation: pKi means the Ki on a negative log10 scale, so that one unit is a factor of ten.

This experiment concerns the target T1, HIV-1 protease (HIV-1 M:B_ARV2/SF2, UniProt P03369, C557X/C585X).
T1 construct: aminobutyric acid at 67 and 95, thioester at 51-52; NovaBiochem kit
In words: Fluorometric HIV-1 protease inhibition assay (NovaBiochem kit, fluorogenic substrate). The class given is biochemical. The protocol:
The inhibition constant (Ki) of compound Ia is determined using HIV-1 protease kit supplied by NovaBiochem (cat. #10-39-0001, which supplies a solid phase synthesized analog of the protease, incorporating the unnatural residue aminobutyric acid in place of both cysteine residues 67 and 95, along with a thioester linkage in place of the normal peptide bond between residues 51-52). A fluorometric assay is performed using a fluorogenic substrate supplied by NovaBiochem (cat. #05-23-5216, Abz-Thr-Ile-Nle-Phe(NO2)-Gln-Arg-NH2). Initial rates of substrate hydrolysis are determined by following the increase in the fluorescence emission at 420 nm (excitation is at 325 nm) as the substrate is digested by the protease. The initial rates of substrate cleavage is determined in the absence and presence of compound Ia (up to a concentration of Ia=500 nM).

Each structure is given as a SMILES string. pKi: −log10 of the molar value.

Take `CC(C)(C)OC(=O)N[C@@H](Cc1ccccc1)[C@@H](O)C[N+](C)(Cc1ccccc1)[N-]C(=O)c1ccccc1` (single isomer, unassigned) [Ia]: the “mode of inhibition (Lineweaver-Burk analysis)” value (initial rates of substrate cleavage in absence and presence of Ia (up to 500 nM)) is “classical competitive inhibition”. In addition, the pKi (read-out: inhibition constant (Ki), synthetic HIV-1 protease analog (NovaBiochem), substrate Abz-Thr-Ile-Nle-Phe(NO2)-Gln-Arg-NH2, replot of Lineweaver-Burk slopes, Ia up to 500 nM) is 6.86.

These data come from patent US5892113A, “Hydroxyethyl aminimides” (priority 1997, dated 1999).
